Reference: PubChem BioAssay AID792 (PCMD, 2007)
Records with an inconclusive call do not appear. Active and inactive are the calls of the source. No rule for the calls is given here.

Biological target: S. cerevisiae eIF2B mutant, luciferase reporter luminescence
Test: eIF2B reporter inhibitors in yeast strains, dose response, S. cerevisiae, mutant, wild-type, luminescence, growth (AID 792)
[1] = measured here: mutant yeast growth
[2] = S. cerevisiae wild-type, luminescence

Structure (SMILES)	IC50	IC50 [1] [µM]	IC50 [2] [µM]
CSC1=NCCN1C(=O)c1cccc(C(F)(F)F)c1	> 100 µM (inactive)	> 100	
COc1cc(C)nc(N2CCCC(C(=O)Nc3cccc(Cl)c3C)C2)n1 (centres undefined)	> 100 µM (inactive)	> 100	
CCOC(=O)C1(C)/C(=N/Nc2ccccc2)C(=O)C(=O)N1c1ccccc1 (centres undefined)	> 100 µM (inactive)	> 100	
COc1ccccc1NC(=O)Cc1csc(N)n1	> 100 µM (inactive)	> 100	
O=C(O)c1ccc(CSc2n[nH]c(-c3ccco3)n2)cc1	> 100 µM (inactive)	> 100	
COc1ccccc1NC(=O)CSc1nc(O)cc(=O)n1C	> 100 µM (inactive)	> 100	
C=CCn1c(SCC(=O)Nc2cc(C)cc(C)c2)nnc1-c1cnccn1	> 100 µM (inactive)	> 100	
CCC(=O)N(Cc1cc(=O)[nH]c2ccccc12)c1cccc(C)c1	> 100 µM (inactive)	> 100	
O=C(CCSc1nnc(-c2ccco2)o1)Nc1ccc(Cl)cc1	> 100 µM (inactive)	> 100	
CCC(C(=O)NC1CCCC1)N(C(=O)c1snc(C(N)=O)c1N)c1ccc2c(c1)OCCO2 (centres undefined)	> 100 µM (inactive)	> 100	
O=C(Nc1ccccn1)c1cc2ccccc2o1	inactive	56.3	4.46
Cc1cc(C)nc(Nc2n[nH]c(COc3ccc(Cl)cc3)n2)n1	> 100 µM (inactive)	> 100	
CCC(C)N(C(=O)COC(=O)c1[nH]c(C)c(C(C)=O)c1C)C1CCS(=O)(=O)C1 (centres undefined)	> 100 µM (inactive)	> 100	
Cc1cc2ncc(C(=O)Nc3ccccc3)c(C)n2n1	> 100 µM (inactive)	> 100	
COC(=O)CC1Oc2ccccc2N(Cc2ccc(C)cc2)C1=O (centres undefined)	> 100 µM (inactive)	> 100	
COc1ccc(NC(=O)C(=O)NCCN2CCN(C(=O)c3cccs3)CC2)cc1	> 100 µM (inactive)	> 100	
c1ccc(SCc2nc(-c3ccccn3)no2)cc1	> 100 µM (inactive)	> 100	
CCOC(=O)CC1=NC(=O)CS1	> 100 µM (inactive)	> 100	
COc1ccc(S(=O)(=O)N2CCCCC2)cc1C(C)C	> 100 µM (inactive)	> 100	
C=CCSc1nnc2c(n1)OC(c1cccnc1)N(C(C)=O)c1ccccc1-2 (centres undefined)	> 100 µM (inactive)	> 100	
CC(=O)/C(C(=N)N1CCN(c2cccc(Cl)c2)CC1)=C(\C)O	> 100 µM (inactive)	> 100	
CN1CCN(CCC(=O)Nc2ccc3c(c2)OCO3)CC1	> 100 µM (inactive)	> 100	
O=S(=O)(N1CCCCC1)N1CCCN(S(=O)(=O)N2CCCCC2)CC1	> 100 µM (inactive)	> 100	
C=CCn1c(N)cc(=O)nc1SCC(=O)Nc1ccccc1	> 100 µM (inactive)	> 100	
O=C(NCc1ccco1)c1sc(=S)n2c1[nH]c(=O)c1ccccc12	> 100 µM (inactive)	> 100	
COc1ccc2c(c1)CCc1c(C(=O)N3CC4(C)CC3CC(C)(C)C4)noc1-2 (centres undefined)	> 100 µM (inactive)	> 100	
CN(CCO)c1nc(N)c2c(N)nc3c(c2c1C#N)CC(=O)N3C1CCCC1	> 100 µM (inactive)	> 100	

Structure (SMILES)	IC50	IC50 [1] [µM]	IC50 [2] [µM]
COc1cc(S(=O)(=O)N(Cc2cccnc2)Cc2ccco2)ccc1-n1cnnn1	> 100 µM (inactive)	> 100	> 100
CC(NC(=O)CSc1nc2ccccc2c(=O)n1CCCO)c1ccccc1 (centres undefined)	> 100 µM (inactive)	> 100	
CCC(Sc1nc2sc(C(=O)OC)c(C)c2c(=O)n1N)C(=O)NCC1CCCO1 (centres undefined)	> 100 µM (inactive)	> 100	
COc1ccc(OC)c(C2=Nn3c(nnc3-c3cccc(OC(C)C)c3)SC2)c1	> 100 µM (inactive)	> 100	
CN(C)c1nc(N(C)C)nc(N(C#N)CCOc2ccccc2)n1	> 100 µM (inactive)	> 100	
CCC(=O)N1CCc2cc(S(=O)(=O)NC(C(=O)NCc3ccc(F)cc3)C(C)C)ccc21 (centres undefined)	> 100 µM (inactive)	> 100	
Cc1ccc(Cn2nnnc2CN2CCC(O)(c3ccc(F)cc3)CC2)cc1	> 100 µM (inactive)	> 100	
O=c1/c(=C/c2ccc(CNS(=O)(=O)c3ccccc3)o2)sc2n1CCN=2	> 100 µM (inactive)	> 100	
CN(C)S(=O)(=O)c1cccc(NC(=O)COC(=O)c2ccc(Br)o2)c1	> 100 µM (inactive)	> 100	
CCN1CCN(c2cc(C(C)(C)C)nc3c(-c4ccccc4)c(C)nn23)CC1	inactive	15.8	
CC1Cc2ccccc2N1C(=O)Cn1c(=O)cc(O)c2ccccc21 (centres undefined)	> 100 µM (inactive)	> 100	
COc1cccc(C2NC(CC(C)C)(C(=O)O)C3C(=O)N(Cc4ccccc4)C(=O)C23)c1O (centres undefined)	> 100 µM (inactive)	> 100	
Cc1cc2n(n1)SC(Nc1ccccc1)N2 (centres undefined)	> 100 µM (inactive)	> 100	
Cc1cc2c(c(=O)n1CC1CCCO1)C(c1ccco1)C(C#N)=C(N)O2 (centres undefined)	> 100 µM (inactive)	> 100	
Cn1c(=O)cc(SCC(=O)NCCCN2CCOCC2)c2ccccc21	> 100 µM (inactive)	> 100	
COc1ccc(C(=O)Nn2c(C)nnc2-n2nc(C)cc2C)cc1OC	> 100 µM (inactive)	> 100	
CCOC(=O)c1[nH]c2ccc(OC)cc2c1NC(=O)C(C)N1CCSCC1 (centres undefined)	> 100 µM (inactive)	> 100	
CCCC(=O)Nc1sc(C(=O)OC)c(C)c1C(N)=O	> 100 µM (inactive)	> 100	
CC(=C1C(=O)c2ccccc2C1=O)N1CCN(CCN=Cc2c(O)n(C)c(=O)n(C)c2=O)CC1	> 100 µM (inactive)	> 100	
Cc1cc2nnc(SCC(=O)NCc3cccs3)n2c2ccccc12	> 100 µM (inactive)	> 100	
COc1ccc(Nc2oc(COc3cccc(C)c3)nc2C#N)cc1	> 100 µM (inactive)	> 100	
CCC(C)Oc1cccc(OCCCCN2C(=O)NC(C)(C)C2=O)c1 (centres undefined)	> 100 µM (inactive)	> 100	
COc1ccc(C2C=C(c3ccccc3)Nc3nnnn32)cc1 (centres undefined)	> 100 µM (inactive)	> 100	
O=C(CCNS(=O)(=O)c1ccc2c(c1)CCC(=O)N2)NCc1cccnc1	> 100 µM (inactive)	> 100	
COc1ccc(OC)c(NC(=O)CNC(=O)Cn2cnc3ccccc3c2=O)c1	> 100 µM (inactive)	> 100	
COC(=O)c1ccccc1NC(=O)CSc1nc(-c2ccco2)cc(C(F)(F)F)n1	> 100 µM (inactive)	> 100	
COc1ccc(NC(=O)c2ccco2)cc1NC(=O)c1ccc(C)cc1	> 100 µM (inactive)	> 100	

Structure (SMILES)	IC50	IC50 [1] [µM]	IC50 [2] [µM]
CC(C)C(=O)N1CCN(C2=NS(=O)(=O)c3ccccc32)CC1	> 100 µM (inactive)	> 100	
Cc1ccc(OCCCC(=O)Nc2ccc(S(=O)(=O)Nc3cc(C)on3)cc2)cc1	> 100 µM (inactive)	> 100	
COc1ccc(C2=CSC3=NCCN23)cc1F	> 100 µM (inactive)	> 100	
CCCCN(Cc1ccccc1)S(=O)(=O)c1ccc2[nH]c(=O)oc2c1	> 100 µM (inactive)	> 100	
CCOC(=O)N1CCN(c2cc(NCCC(=O)O)c3c4c(onc24)-c2ccccc2C3=O)CC1	> 100 µM (inactive)		
Cc1cccc(-c2nnc(SCC#N)n2Cc2ccccc2)c1	> 100 µM (inactive)	> 100	
COCC(=O)Nc1cc(OC)c(Cl)cc1OC	> 100 µM (inactive)	> 100	
CCCS(=O)(=O)N1CCC(C(=O)NCCc2ccc(C)cc2)CC1	> 100 µM (inactive)	> 100	
CCn1c(C)c(/C=N/Nc2nc3ccccc3s2)c2ccccc21	> 100 µM (inactive)	> 100	
CCOC(=O)CSC1=Nc2ccccc2C2=NC(CC(=O)NCc3ccccc3)C(=O)N12 (centres undefined)	> 100 µM (inactive)	> 100	
COc1ccc2c(c1)CCc1c(C(=O)NCc3cccnc3)noc1-2	> 100 µM (inactive)	> 100	
CCOC(=O)C1CCCN(C(=O)c2cc3c(C)nc4ccccc4c3o2)C1 (centres undefined)	> 100 µM (inactive)	> 100	
CCOCC(=O)Nc1cccc(NC(C)=O)c1	> 100 µM (inactive)	> 100	
CCCOc1ccc(N2C(=O)CC(SC(=NCC)Nc3cccc(F)c3)C2=O)cc1 (centres undefined)	> 100 µM (inactive)	> 100	
O=c1c2ccccc2nc(-c2ccco2)n1-c1nc2ccccc2s1	> 100 µM (inactive)	> 100	
CCC(C)c1ccc(OCC(=O)O)cc1 (centres undefined)	> 100 µM (inactive)	> 100	
C=CCn1c(COc2ccccc2F)nnc1SCC(=O)Nc1cc2oc3ccccc3c2cc1OC	> 100 µM (inactive)	> 100	
COC(=O)c1nn2c(C(F)(F)F)cc(-c3ccc(Br)o3)nc2c1Br	> 100 µM (inactive)	> 100	
CCCn1c(SCC(=O)Nc2nc3c(s2)CCCC3)nc2c1c(=O)n(C)c(=O)n2C	> 100 µM (inactive)	> 100	
COc1ccc(C2(C)NC(=O)N(CC(=O)Nc3ccc4c(c3)OCO4)C2=O)cc1OC (centres undefined)	> 100 µM (inactive)	> 100	
CCCCOc1ccc(OCCCC)c2c1NC1(N2)C(=O)N(C(C)=O)c2ccccc21	> 100 µM (inactive)	> 100	
O=C(CCN1CCN(Cc2ccccc2)CC1)Nc1cccc(Cl)c1	> 100 µM (inactive)	> 100	
CCC(=O)Nc1c2c(nn1-c1ccc(C)cc1C)CSC2	> 100 µM (inactive)	> 100	
COc1ccc(Cl)cc1-n1c(N)c(C(N)=O)sc1=S	> 100 µM (inactive)	> 100	
O=C(CSc1nc(-c2ccco2)cc(C(F)(F)F)n1)Nc1ccccc1C(F)(F)F	> 100 µM (inactive)	> 100	
